Measurements: ChEMBL document CHEMBL1201862, “PubChem BioAssay data set” (2004)
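Assay format: 96-well plates, 48-hour exposure. The concentration for 50% growth inhibition is given as GI50.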 Active and inactive are the calls of the source. Rule as the data show it: active = GI50 up to about 1.1 µM and inactive = higher.

Tests used:
Experiment in all cases: DTP human tumour cell line panel, 48 h
MOLT-4 = system: MOLT-4
DU-145 = system: DU-145
CCRF-CEM = system: CCRF-CEM
SW-620 = system: SW-620
SK-MEL-28 = system: SK-MEL-28
CAKI-1 = system: CAKI-1
SK-MEL-5 = system: SK-MEL-5
SN12C = system: SN12C
EKVX = system: EKVX
RPMI-8226 = system: RPMI-8226
T47D = system: T47D
HT-29 = system: HT-29
IGROV-1 = system: IGROV-1
MDA-N = system: MDA-N
LOX IMVI = system: LOX IMVI
KM12 = system: KM12
Malme-3M = system: Malme-3M
786-0 = system: 786-0
MCF7 = system: MCF7
UACC-62 = system: UACC-62
SF-295 = system: SF-295
RXF 393 = system: RXF 393
SK-OV-3 = system: SK-OV-3
A549 = system: A549
SR = system: SR
HCT-15 = system: HCT-15
OVCAR-8 = system: OVCAR-8
SNB-75 = system: SNB-75
TK-10 = system: TK-10
COLO 205 = system: COLO 205
HCC 2998 = system: HCC 2998
PC-3 = system: PC-3
K562 = system: K562
NCI-H23 = system: NCI-H23
HOP-62 = system: HOP-62
MDA-MB-231 = system: MDA-MB-231
UACC-257 = system: UACC-257
M14 = system: M14
HL-60 = system: HL-60
NCI/ADR-RES = system: NCI/ADR-RES
A498 = system: A498
ACHN = system: ACHN
SF-539 = system: SF-539
OVCAR-4 = system: OVCAR-4
U-251 = system: U-251
MDA-MB-435 = system: MDA-MB-435
OVCAR-3 = system: OVCAR-3
OVCAR-5 = system: OVCAR-5
SK-MEL-2 = system: SK-MEL-2
NCI-H522 = system: NCI-H522
UO-31 = system: UO-31
NCI-H226 = system: NCI-H226
SNB-19 = system: SNB-19
SF-268 = system: SF-268
HCT-116 = system: HCT-116
HOP-92 = system: HOP-92
NCI-H460 = system: NCI-H460

Measured: GI50

CC(C)(Oc1ccc(C(=O)c2ccc(Cl)cc2)cc1Cl)C(=O)N1CCN(CCO)CC1
> 10 µM: HCT-15
inactive: MOLT-4 4.4 µM | DU-145 7.05 µM | CCRF-CEM > 10 µM | SW-620 > 10 µM | SK-MEL-28 > 10 µM | CAKI-1 > 10 µM | SK-MEL-5 3.91 µM | SN12C > 10 µM | EKVX > 10 µM | RPMI-8226 4.51 µM | T47D 5.85 µM | HT-29 > 10 µM | IGROV-1 > 10 µM | MDA-N > 10 µM | LOX IMVI > 10 µM | KM12 > 10 µM | Malme-3M 9.42 µM | 786-0 > 10 µM | MCF7 5.12 µM | UACC-62 > 10 µM | SF-295 8.59 µM | RXF 393 6.27 µM | SK-OV-3 > 10 µM | A549 > 10 µM | SR 2.96 µM | OVCAR-8 > 10 µM | SNB-75 > 10 µM | TK-10 > 10 µM | COLO 205 > 10 µM | HCC 2998 > 10 µM | PC-3 3.93 µM | K562 2.85 µM | NCI-H23 4.24 µM | HOP-62 > 10 µM | MDA-MB-231 > 10 µM | UACC-257 3.39 µM | M14 > 10 µM | HL-60 3.53 µM

COc1ccc(/C=C\c2cc(OC)c(OC)c(OC)c2)cc1OP(=O)(O)O
active: NCI/ADR-RES 0.000137 µM

CCOC(=O)c1c(-c2cccc3ccccc23)c(C#N)c(=S)n(C2OC(COC(C)=O)C(OC(C)=O)C(OC(C)=O)C2OC(C)=O)c1C (stereo not drawn)
inactive: A498 > 100 µM | ACHN > 100 µM | MOLT-4 > 100 µM | DU-145 > 100 µM | CCRF-CEM > 100 µM | SF-539 > 100 µM | SK-MEL-28 > 100 µM | OVCAR-4 > 100 µM | SK-MEL-5 > 100 µM | SN12C > 100 µM | T47D > 100 µM | HT-29 > 100 µM | U-251 > 100 µM | IGROV-1 > 100 µM | MDA-N > 100 µM | LOX IMVI > 100 µM | KM12 > 100 µM | Malme-3M > 100 µM | MDA-MB-435 > 100 µM | 786-0 > 100 µM | MCF7 > 100 µM | UACC-62 > 100 µM | SF-295 > 100 µM | OVCAR-3 > 100 µM | NCI/ADR-RES > 100 µM | RXF 393 > 100 µM | SK-OV-3 > 100 µM | A549 > 100 µM | SR > 100 µM | OVCAR-5 > 100 µM | OVCAR-8 > 100 µM | SNB-75 13.7 µM | SK-MEL-2 64.1 µM | NCI-H522 > 100 µM | TK-10 > 100 µM | UO-31 1.32 µM | COLO 205 > 100 µM | NCI-H226 > 100 µM | HCC 2998 > 100 µM | PC-3 15.8 µM | K562 > 100 µM | NCI-H23 > 100 µM | HOP-62 > 100 µM | SNB-19 > 100 µM | MDA-MB-231 > 100 µM | SF-268 > 100 µM | HCT-116 > 100 µM | UACC-257 > 100 µM | HOP-92 > 100 µM | NCI-H460 > 100 µM | M14 > 100 µM | HL-60 > 100 µM
> 100 µM: HCT-15
